Laboratory results reported in paper PMC8868285, “Pharmacological Inhibition of Epac1 Averts Ferroptosis Cell Death by Preserving Mitochondrial Integrity” (Antioxidants, 2022).
pIC50: −log10 of the molar value.

How the values were obtained:
[1] = system: retinal glial cells (RGC); design: method as in PMID 31918438; details: cited from earlier work
HT-22 cells [2] = assay: MTT cell viability assay; type: cell-based, mouse
Experimental: (§1) Cell viability and metabolic activity of cells was first assessed using a colorimetric 3-(4,5-dimethylthiazol-2-yl)-2,5-diphenyltetrazolium Bromide (MTT) (Sigma–Aldrich Chemie GmbH, Steinheim, Germany, #M5655) reduction assay. Cells in a 96-well plate format (8–10,000 cells/well) were incubated with the MTT solution (0.5 mg/mL) for a maximum of 1 h at 37 °C. Afterward, the MTT-containing solution was entirely removed, and the 96-well plate was incubated at −80 °C for at least 2 h. To allow formazan to uniformly disperse in the medium, dimethyl sulfoxide (DMSO) (Sigma–Aldrich Chemie GmbH, Steinheim, Germany, #D8418, Lot# SHBH9942) was administered to the cells for 1 h at 37 °C with continuous shaking. The absorbance values were determined by Synergy™H1 (Bad Friedrichshall, Germany) Hybrid MultiMode Reader at 570 nm with a 630 nm reference filter. The absorbance values of untreated healthy cells or cells treated with DMSO 1% (used as a solvent for various pharmacological applications) were regarded as 100% of cell viability. […] HT-22 cells were treated with the following conditions: control condition (solvent), drug of interest, erastin, and pre- or co-treatment with erastin and drug of interest. Cells as appropriate were pre-treated for 30 min with the drug of interest before the addition of erastin. xCELLigence ®RTCA MP system (ACEA BIO, Amsterdam, The Netherlands) was used to measure cell impedance in real time. The xCELLigence ®RTCA MP system is a label-free real-time cell-based assay, suitable for continuous monitoring of alteration/modifications of the morphology of cells. Continuous cell monitoring was performed by using an E-plate 96 and the cellular impedance or cell resistance was assessed every 15 min for 24 h.

HT-22 cells [3] = assay: Cell death assessment, FACS analysis of PI staining; details: erastin 1 μM alone
Experimental: (§2) Flow cytometry analysis using the CytoFLEXS benchtop flow cytometer (Beckman Coulter Life Sciences, Indianapolis, IN, USA) was used to evaluate intracellular parameters that are associated with not only oxidative stress but also mitochondrial dysfunction, and cell death. HT-22 cells (40,000 cells/well) seeded in 24-well plates were treated with various conditions. Treatment groups included: control condition (DMSO 1%), erastin 1 µM or 1.5 µM, CE3F4 100 µM, and co-treatment of erastin and CE3F4. Three separate wells were analyzed for each condition and the same number of counts (10,000/well) were measured by flow cytometry. At least three independent experiments were performed, and the Kaluza Analysis 1.5 software was employed for quantification of data.
The amount of cell death after stimulation with erastin for 16–17 h was assessed by incubating trypsonized HT-22 cell suspension with propidium iodide (PI) (Invitrogen, Oregon City, OR, USA, #V13242, Lot #2008168) in a binding buffer. Incubation with the dye was for 30 min at RT. Fluorescence was detected at 494/518 and 535/617 for FITC and PI respectively.

HT-22 cells [4] = assay: Mitochondrial superoxide, MitoSOX FACS
Experimental: as §2
MitoSOX dye (Invitrogen, Oregon City, OR, USA, #M36008, Lot#1924466) was used to evaluate mitochondrial ROS. The MitoSOX dye is able to permeate live cells and also selectively target mitochondria where it is swiftly oxidized by superoxides but not by other reactive oxygen species. […] Incubation of HT-22 cells with MitoSOX™ 1.25 μM dye was done for 30 min at 37 °C. Fluorescence excitation and detection were done at 488 nm and 690/50 nm respectively.

HT-22 cells [5] = assay: Brightfield images of cell morphology; type: cell-based, mouse
HT-22 cells [6] = assay: Lipid peroxidation, BODIPY FACS; details: erastin 1 μM alone, 4 h
Experimental: as §2
The staining dye BODIPY 2 μM (Invitrogen, Karlsruhe, Germany, # D3861, Lot # 1890330) was used to estimate lipid peroxidation. Erastin treatment was done for 4 h. HT-22 cells were then stained for 30 min at RT, followed by a one-time wash with PBS and finally analyzed. Fluorescence excitation and detection were done at 488 nm and 530 nm respectively.

HT-22 cells [7] = assay: Mitochondrial morphology (MitoTracker Deep Red, categories I-III); type: cell-based, mouse; details: erastin 1 μM alone
Experimental: Mitochondrial morphology was assessed using imaging of HT-22 cells stained with MitoTracker™Deep Red FM (Invitrogen, Oregon City, OR, USA, #M22426). Cells were treated with either erastin 1 µM, CE3F4 100 µM, or co-treated with erastin 1 µM and CE3F4 100 μM for 18 h. After the treatment, cells were incubated with 200 nM MitoTracker™Deep Red FM for 30 min at 37 °C. Untreated cells were included as controls. 4% paraformaldehyde (PFA) was used for fixation and detection of the MitoTracker fluorescence was achieved by 620 nm (excitation) and 700 ± 75 nm (detection). 500 cells per condition were counted and grouped into three different categories, based on their mitochondrial morphology/shape. The analysis and categorization of mitochondria was done by an investigator without previous knowledge of the various experimental conditions. Category I included healthy cells with mitochondria that form an elongated tubular network that is distributed equally throughout the cytosol. It could also include short mitochondria, but distributed in the cytosol. On the other hand, Category II included cells which contained large, and fragmented/granulated mitochondria around the nucleus. […] Category III represented damaged and dying cells with observed small rounded mitochondria of varying sizes and in proximity to the nucleus.. At least three independent experiments were performed.

HT-22 cells [8] = assay: Mitochondrial membrane potential, TMRE FACS
Experimental: as §2
Staining with TMRE™ dye (tetramethylrhodamine-ethyl ester; Invitrogen, Oregon City, OR, USA, #T669) was used to determine loss of mitochondrial membrane potential (MMP) (ΔΨm). […] Collected cells were incubated for 20 min with TMRE 0.2 μM at 37 °C. Fluorescence excitation and detection were done at 488 nm 690/50 nm respectively.

HT-22 cells [9] = assay: Soluble ROS, CM-DCF FACS; type: cell-based, mouse
Experimental: Soluble ROS was evaluated by CM-DCF fluorescent dye (Invitrogen, Oregon City, OR, USA). CM-DCF passively diffuses into cells, and reacts with glutathione and other thiols following cleavage by intracellular esterases, which in turn exposes the thiol-reactive chloromethyl group. The oxidation that follows results in a fluorescent adduct that is ensnared within the cell. The higher the fluorescence, the more cellular ROS is produced in the cells.

HT-22 cells [10] = assay: Extracellular flux analysis (Seahorse), oxygen consumption rate; type: cell-based, mouse
Experimental: Cellular Oxygen Consumption Rate (OCR) was measured by using an XFe96 extracellular flux analyzer (Seahorse Bioscience, Billerica, MA, USA) which also entailed the mitochondrial stress test as described previously. HT-22 cells (10,000 cells/well) were seeded onto the XFe96-well cell culture microplate and incubated at 37 °C, 5% CO2. 24 h before the assay, the growth medium was replaced with a fresh medium containing either DMSO 1%, erastin 1 µM, CE3F4 alone, ESI-05 alone or a co-treatment of erastin with either CE3F4 or ESI-05. Cells in 180 μL of assay non-buffered DMEM medium supplemented with 2 mM glutamine, 4.5 g/L glucose and 1 mM pyruvate, pH 7.35 were incubated for 1 h in a CO2 free incubator at 37 °C. Basal respiration was measured before injecting the inhibitors that included; oligomycin (4 μM; port A)—an ATP synthase inhibitor; 2,4-dinitrophenol (DNP) (Sigma–Aldrich Chemie GmbH, Steinheim, Germany, #34334) (50 μM; port B)—a mitochondrial oxidative phosphorylation uncoupler; and rotenone (Sigma–Aldrich Chemie GmbH, Steinheim, Germany, #R8875) together with antimycin A (Sigma–Aldrich Chemie GmbH, Steinheim, Germany, #A8674) 0.1 μM and 1 μM; port C)—complex I and complex III inhibitors. By using the BCA assay, OCR measurements were normalized to the protein amount in every well. Three independent experiments with six wells per condition were performed, and a one-way ANOVA test was used to determine statistical significance among different groups.

HT-22 cells [11] = assay: xCELLigence real-time cell impedance measurement; type: cell-based, mouse; details: erastin alone, dose response
Experimental: as §1, with “Cells as appropriate were pre-treated for 30 min with the drug of interest before the addition of erastin. xCELLigence ®RTCA MP system (ACEA BIO, Amsterdam, The Netherlands) was used to measure cell impedance in real time. The xCELLigence ®RTCA MP system is a label-free real-time cell-based assay, suitable for continuous monitoring of alteration/modifications of the morphology of cells.” left out

Epac = system: Epac; design: method as in BioLog, Cat.No. C 041; details: no literature reference printed; ref BioLog, Cat.No. C 041; cited from earlier work
[12] = system: isolated mitochondria from HT-22 cells; assay: High-resolution respirometry (Oroboros) of isolated mitochondria; design: species or system mouse
Experimental: Mitochondria were isolated from harvested HT-22 cells (4–8 × 10^7 cultivated in T75 flasks) using a semi-automated pump-controlled cell rupture system (PCC) (0.71 mL/min) with syringes (SGE, Trajan© Scientific, Ringwood, Australia) attached to a cell homogenizer (Isobiotech, EMBL, Heidelberg, Germany) (bead size of 10 μm suitable for HT-22 cells) and superimposed on a pump (ProSense B.V, Oosterhout, The Netherlands, #NE1000). Collected samples were centrifuged at 800 rpm for 10 min at 4 °C. The supernatant was further centrifuged at 9000× g for 10 min at 4 °C. The resulting pellet was the crude mitochondria. Finally, the mitochondria were suspended in an isolation buffer (HEPES 20 mM, sucrose 250 mM EDTA 3 mM, pH 7.5) for subsequent experiments. The whole procedure was executed on ice.
The protein concentration of isolated mitochondria was determined using the Pierce™ BCA Protein Assay Kit (Pierce™ BCA Protein Assay Kit, Thermo Scientific, Rockford, IL, USA, #23225). Respiration of the isolated mitochondria from HT-22 cells was analyzed using the high-resolution respirometry oxygraph O2K (Oroboros Systems, Innsbruck, Austria). The isolated mitochondria (200 μg) prepared as previously described, were treated with either CE3F4, ESI-05, ethanol, or DMSO as appropriate for 25 min, followed by mitochondrial respiration measurements. Mitochondrial state 1 was determined by continuous stirring at 750 rpm in 1 mL of MiR05 buffer (MgCl2 3 mM, lactobionic acid 60 mM, EGTA 0.5 mM taurine 20 mM, KH2PO4 10 mM, D-Sucrose 110 mM, HEPES 20 mM, BSA, essential fatty acid-free1 g/L, pH adjusted to 7.4). DatLab software (Oroboros Systems, Innsbruck, Austria) was used to record real-time oxygen flux per tissue mass (pmol O2. s^−1 × mg^−1) at 37 °C and to perform oxygen polarography. States were described as, State 2: a non-phosphorylating respiration state which was assessed by addition of complex-I linked substrates, 5 mM pyruvate (Sigma–Aldrich Chemie GmbH, Steinheim, Germany #P-2256), and 2 mM malate (Sigma–Aldrich Chemie GmbH, Steinheim, Germany, #374318); State 3: the oxidative-phosphorylation capacity (OXPHOS) state, of complex-I linked activity or basal respiration was achieved by adding a saturating concentration of 0.8 mM ADP (Sigma–Aldrich Chemie GmbH, Steinheim, Germany, #A5285), this allowed for calculation of ADP-coupled repiration; State 4: Achieved by subsequent addition of oligomycin 0.1 μM/mL (Sigma–Aldrich Chemie GmbH, Steinheim, Germany, #O4876) following state 3, oligomycin blocks the ATP-synthase, thereby inhibiting proton passage; State 3U: Was assessed by incremental steps of 1 μM addition of FCCP—theprotonophore carbonyl cyanide 4-(trifluoromethoxy) phenylhydrazone (Sigma–Aldrich Chemie GmbH, Steinheim, Germany, #C2920), this allowed the calculation of the reserve capacity of the Electron Transport Chain (ETC); Finally, sodium dithionite (DTT, Sigma–Aldrich Chemie GmbH, Steinheim, Germany, #15,795-3) was added to reduce all residual oxygen that was present in the chamber and to calibrate the oxygen content in the chamber. The O2 slope (pmol × (mL/s)) of isolated mitochondria was the oxygen concentration and also the initial derivate of the oxygen concentration—a derivative of oxygen consumption. Measurements were recorded in intervals of 2 s by using a background correction after calibration of the polarographic oxygen sensors.

traumatic brain injury = system: traumatic brain injury; design: method as in PMID 29740274; details: cited from earlier work
[13] = system: secondary brain injury induced by intracerebral hemorrhage; design: method as in PMID 30607901; details: cited from earlier work
Epac2 = details: ESI-05, Epac2 inhibitor; cited from earlier work

CC(C)(C)c1cc(C(=O)/C(C#N)=N/Nc2cccc(Cl)c2)no1 [ESI-09]
effect on RGC [1]: neuroprotective
neuroprotection against erastin-induced ferroptosis (MTT) (HT-22 cells [2]; ESI-09, 30 μM): dose-dependent neuroprotection

CCOc1ccccc1-n1c(C(C)N2CCN(C(=O)COc3ccc(Cl)cc3)CC2)nc2ccccc2c1=O (stereo not shown) [erastin]
cell death (PI staining) (HT-22 cells [3]): augmented cell death
mitochondrial superoxide levels (HT-22 cells [4]; erastin 1 μM alone): significant increase and shift towards high ROS levels
mitochondrial superoxide levels (HT-22 cells [4]; erastin 1.5 μM alone): significant increase and shift towards high ROS levels
cell death (MTT cell viability) (HT-22 cells [2]; erastin alone, dose response): dose-dependent cell death
cell morphology (HT-22 cells [5]; erastin 1 μM alone): marked alteration in cell morphology
lipid peroxidation (HT-22 cells [6]): increased
mitochondrial morphology (HT-22 cells [7]): induced pronounced mitochondrial fragmentation
mitochondrial membrane potential (ΔΨm) (HT-22 cells [8]; erastin 1 μM alone): significant loss of ΔΨm
mitochondrial membrane potential (ΔΨm) (HT-22 cells [8]; erastin 1.5 μM alone): significant loss of ΔΨm
ROS level (CM-DCF) (HT-22 cells [9]; erastin 1 μM alone): significantly increased
ROS level (CM-DCF) (HT-22 cells [9]; erastin 1.5 μM alone): significantly increased
mitochondrial respiration (OCR) (HT-22 cells [10]; erastin 1 μM vs untreated or solvent-treated controls): significant decrease in mitochondrial respiration
cell death (real-time cell impedance) (HT-22 cells [11]): dose-dependent cell death

CO[C@@H]1[C@@H]2OP(=O)(O)OC[C@H]2O[C@H]1n1c(Sc2ccc(Cl)cc2)nc2c(N)ncnc21 [8-PCPT-2-O-Me-cAMP]
neuroprotection against erastin-induced ferroptosis (MTT) (HT-22 cells [2]; 8-pCPT 10–100 μM): did not mediate neuroprotection
AC50 (Epac): 1800 nM

CO[C@@H]1[C@@H]2OP(=O)(OCOC(C)=O)OC[C@H]2O[C@H]1n1c(Sc2ccc(Cl)cc2)nc2c(N)ncnc21 (stereo partly shown) [8-pCPT-2-O-Me-cAMP-AM]
effect on RGC [1]: neurotoxic effects

Cc1ccc(S(=O)(=O)c2c(C)cc(C)cc2C)cc1 [ESI-05]
respiration rate after inhibition of ETC complex V (state 4) ([12]; 10 μM ESI-05): significantly increased
mitochondrial respiration ([12]; ESI-05 30 μM): does not affect mitochondria respiration
neural cell apoptosis after traumatic brain injury (traumatic brain injury): decreased neural cell apoptosis
neurological deficits after traumatic brain injury (traumatic brain injury): improved other neurological deficits
secondary brain injury induced by intracerebral hemorrhage [13]: suppressed secondary brain injury
neuroprotection against erastin-induced ferroptosis (MTT) (HT-22 cells [2]; 100 μM ESI-05 with lower concentrations of erastin): did not mediate neuroprotection
neuroprotection against erastin-induced ferroptosis (MTT) (HT-22 cells [2]; ESI-05 3–30 μM): did not mediate neuroprotection
neuroprotection against erastin-induced ferroptosis (bright-field microscopy images) (HT-22 cells [5]; ESI-05 30 μM + erastin 1 μM): did not mediate neuroprotection
mitochondrial respiration (OCR) (HT-22 cells [10]; 30 μM ESI-05 + erastin 1 μM vs erastin alone): did not induce any significant difference
pIC50 (Epac2): 6.40
